These results are taken from US9422297B2, “Tricyclic compounds having cytostatic and/or cytotoxic activity and methods of use thereof” (Duquesne University of the Holy Ghost, priority 2007, dated 2016).

Where two headings read alike, the source gives them in different places.

Series [1] concerns the target Thymidylate synthase (Homo sapiens (Human), UniProt P04818). In words: Thymidylate synthase inhibition, human. Format: biochemical. The settings on record: Human TS.
Series [2] has as its target Thymidylate synthase (Toxoplasma gondii, UniProt Q07422). In words: Thymidylate synthase inhibition, Toxo. Format: biochemical.
A further series can be described thus: A431 cytotoxicity assay. Format: cell-based. The settings on record: human, A431 cells.
A further series relates to CAM angiogenesis. In words: CAM assay, inhibition of angiogenesis. Type of series: in vivo. Conditions: Table 3.
For another series, the target named is EGFR kinase (Homo sapiens (Human), UniProt P00533). In words: EGFR kinase inhibition. Type of series: biochemical.
Chain of EGFR kinase (P00533 25-1210): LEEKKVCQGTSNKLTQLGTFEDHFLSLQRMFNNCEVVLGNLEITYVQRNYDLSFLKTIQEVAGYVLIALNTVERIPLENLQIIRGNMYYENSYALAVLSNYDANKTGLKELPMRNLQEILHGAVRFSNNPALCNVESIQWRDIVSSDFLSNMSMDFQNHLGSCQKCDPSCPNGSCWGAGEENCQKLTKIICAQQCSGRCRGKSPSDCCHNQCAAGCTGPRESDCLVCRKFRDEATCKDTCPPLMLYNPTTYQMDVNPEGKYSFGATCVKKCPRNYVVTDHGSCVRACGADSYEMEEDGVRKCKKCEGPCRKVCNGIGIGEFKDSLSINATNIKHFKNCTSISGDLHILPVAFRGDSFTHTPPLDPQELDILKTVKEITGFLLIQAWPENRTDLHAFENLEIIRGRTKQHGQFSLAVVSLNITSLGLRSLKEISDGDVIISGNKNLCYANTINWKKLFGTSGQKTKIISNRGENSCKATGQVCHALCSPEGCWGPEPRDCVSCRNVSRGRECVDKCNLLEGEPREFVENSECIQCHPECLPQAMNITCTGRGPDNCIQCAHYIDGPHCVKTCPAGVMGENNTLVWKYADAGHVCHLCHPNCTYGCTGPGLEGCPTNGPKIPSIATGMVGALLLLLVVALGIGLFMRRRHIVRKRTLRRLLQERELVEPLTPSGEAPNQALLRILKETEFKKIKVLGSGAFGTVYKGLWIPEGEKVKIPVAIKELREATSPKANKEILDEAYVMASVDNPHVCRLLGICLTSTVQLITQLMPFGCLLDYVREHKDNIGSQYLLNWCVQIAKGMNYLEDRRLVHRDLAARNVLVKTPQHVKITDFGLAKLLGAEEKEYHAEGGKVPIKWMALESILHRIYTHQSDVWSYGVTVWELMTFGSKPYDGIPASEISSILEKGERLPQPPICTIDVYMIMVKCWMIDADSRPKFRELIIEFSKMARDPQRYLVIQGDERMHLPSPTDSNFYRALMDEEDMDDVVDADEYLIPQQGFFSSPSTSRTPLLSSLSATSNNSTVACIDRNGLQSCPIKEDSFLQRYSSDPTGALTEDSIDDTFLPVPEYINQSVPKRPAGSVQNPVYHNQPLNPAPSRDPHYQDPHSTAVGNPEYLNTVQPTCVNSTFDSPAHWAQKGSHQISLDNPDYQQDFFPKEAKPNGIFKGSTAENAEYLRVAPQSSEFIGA
Another series has as its target PDGFR-β kinase (Homo sapiens (Human), UniProt P09619). The series is described as follows: PDGFR-β kinase inhibition. Format: biochemical.
Another series deals with Flk-1 kinase (Homo sapiens (Human), UniProt P35968). In words: Flk-1 kinase inhibition. Format: biochemical. The settings on record: Table 3.
Chain of Flk-1 kinase (P35968 20-1356): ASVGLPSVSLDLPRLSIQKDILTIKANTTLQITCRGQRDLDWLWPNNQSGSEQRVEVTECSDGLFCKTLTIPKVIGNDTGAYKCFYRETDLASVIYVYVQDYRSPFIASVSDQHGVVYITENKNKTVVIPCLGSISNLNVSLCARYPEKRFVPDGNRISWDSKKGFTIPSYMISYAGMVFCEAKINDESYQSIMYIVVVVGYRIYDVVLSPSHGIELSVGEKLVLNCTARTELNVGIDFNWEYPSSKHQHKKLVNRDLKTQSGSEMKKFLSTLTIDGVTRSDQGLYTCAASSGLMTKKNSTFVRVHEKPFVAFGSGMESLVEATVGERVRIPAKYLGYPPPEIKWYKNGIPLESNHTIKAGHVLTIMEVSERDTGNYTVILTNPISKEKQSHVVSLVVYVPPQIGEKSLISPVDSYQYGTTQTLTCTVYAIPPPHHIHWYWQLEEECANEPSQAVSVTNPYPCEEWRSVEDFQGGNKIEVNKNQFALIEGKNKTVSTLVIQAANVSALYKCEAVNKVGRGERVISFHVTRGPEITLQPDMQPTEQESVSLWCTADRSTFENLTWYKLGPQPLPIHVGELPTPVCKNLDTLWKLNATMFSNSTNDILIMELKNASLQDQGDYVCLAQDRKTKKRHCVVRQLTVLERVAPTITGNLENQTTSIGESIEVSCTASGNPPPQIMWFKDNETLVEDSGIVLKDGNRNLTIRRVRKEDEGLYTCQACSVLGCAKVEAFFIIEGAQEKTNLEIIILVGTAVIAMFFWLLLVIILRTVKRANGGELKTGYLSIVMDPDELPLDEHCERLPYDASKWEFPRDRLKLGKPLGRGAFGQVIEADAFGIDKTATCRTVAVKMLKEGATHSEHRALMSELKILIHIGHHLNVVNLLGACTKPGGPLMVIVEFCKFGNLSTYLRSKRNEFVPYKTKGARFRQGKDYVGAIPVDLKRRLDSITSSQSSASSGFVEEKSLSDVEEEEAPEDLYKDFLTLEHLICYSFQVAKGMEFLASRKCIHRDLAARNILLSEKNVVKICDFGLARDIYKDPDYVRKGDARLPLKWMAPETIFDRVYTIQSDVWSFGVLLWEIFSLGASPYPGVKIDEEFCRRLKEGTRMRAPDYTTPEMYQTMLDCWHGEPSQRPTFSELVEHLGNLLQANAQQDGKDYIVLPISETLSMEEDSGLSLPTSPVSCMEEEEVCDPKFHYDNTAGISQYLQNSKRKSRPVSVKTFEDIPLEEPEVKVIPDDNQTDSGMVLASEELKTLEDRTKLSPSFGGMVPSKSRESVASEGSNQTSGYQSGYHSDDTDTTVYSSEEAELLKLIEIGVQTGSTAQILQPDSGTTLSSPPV
Series [3] addresses Thymidylate synthase (Escherichia coli (strain K12), UniProt P0A884). In words: Thymidylate synthase inhibition, E. coli. Type of series: biochemical.
The target in another series is VEGFR-2 kinase (Homo sapiens (Human), UniProt P35968). In words: VEGFR-2 kinase inhibition. Format: biochemical. The settings on record: Table 1.
Chain of VEGFR-2 kinase (P35968 20-1356): as above
The test system of series [4] is COLO-205 metastatic human colon cancer cells. The series is described as follows: COLO-205 tumors implanted in athymic mice. Type of series: in vivo.
Setting [5] is: Table 3, read-out: PDGFR-β kinase.
[6] abbreviates: athymic mice, 25 mg/kg 3× weekly.

Chain of PDGFR-β kinase (P09619 33-1106): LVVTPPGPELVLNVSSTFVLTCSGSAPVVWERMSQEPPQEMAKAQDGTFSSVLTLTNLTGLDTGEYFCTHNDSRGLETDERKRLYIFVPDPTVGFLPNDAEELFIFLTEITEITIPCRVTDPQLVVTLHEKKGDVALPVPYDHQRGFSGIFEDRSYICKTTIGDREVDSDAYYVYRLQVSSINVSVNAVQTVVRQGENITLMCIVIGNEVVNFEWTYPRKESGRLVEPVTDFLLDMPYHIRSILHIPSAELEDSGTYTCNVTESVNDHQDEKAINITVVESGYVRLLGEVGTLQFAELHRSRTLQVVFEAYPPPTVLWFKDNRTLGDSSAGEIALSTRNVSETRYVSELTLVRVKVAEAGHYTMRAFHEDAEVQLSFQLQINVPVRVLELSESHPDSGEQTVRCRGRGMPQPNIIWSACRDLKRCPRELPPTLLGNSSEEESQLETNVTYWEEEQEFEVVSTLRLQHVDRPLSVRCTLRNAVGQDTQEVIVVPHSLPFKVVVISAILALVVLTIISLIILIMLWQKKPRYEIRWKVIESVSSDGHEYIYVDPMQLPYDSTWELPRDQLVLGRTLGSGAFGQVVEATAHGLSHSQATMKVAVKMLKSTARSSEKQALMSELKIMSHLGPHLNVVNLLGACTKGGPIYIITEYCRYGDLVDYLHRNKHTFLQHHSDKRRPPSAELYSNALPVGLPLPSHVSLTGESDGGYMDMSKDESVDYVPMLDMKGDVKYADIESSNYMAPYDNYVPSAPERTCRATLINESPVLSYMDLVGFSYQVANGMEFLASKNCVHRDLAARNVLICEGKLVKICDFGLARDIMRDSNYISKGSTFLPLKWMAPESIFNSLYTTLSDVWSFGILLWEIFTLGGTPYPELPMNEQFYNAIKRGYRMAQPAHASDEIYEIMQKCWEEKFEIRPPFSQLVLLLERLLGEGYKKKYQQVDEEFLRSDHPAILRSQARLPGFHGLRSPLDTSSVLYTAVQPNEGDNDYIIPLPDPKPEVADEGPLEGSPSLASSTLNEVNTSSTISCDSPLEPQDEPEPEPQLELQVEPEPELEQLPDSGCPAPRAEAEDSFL
Chain of Thymidylate synthase (Homo sapiens (Human), UniProt P04818) (P04818 whole entry): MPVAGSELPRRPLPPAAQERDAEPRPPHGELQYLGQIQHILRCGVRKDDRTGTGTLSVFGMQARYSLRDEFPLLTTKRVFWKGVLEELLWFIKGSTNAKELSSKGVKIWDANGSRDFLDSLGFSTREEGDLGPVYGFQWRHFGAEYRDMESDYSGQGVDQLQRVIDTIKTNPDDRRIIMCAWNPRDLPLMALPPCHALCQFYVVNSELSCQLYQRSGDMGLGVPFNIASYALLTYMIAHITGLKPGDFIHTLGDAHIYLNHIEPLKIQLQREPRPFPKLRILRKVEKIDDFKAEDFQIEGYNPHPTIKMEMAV
Chain of Thymidylate synthase (Escherichia coli (strain K12), UniProt P0A884) (P0A884 whole entry, looked up): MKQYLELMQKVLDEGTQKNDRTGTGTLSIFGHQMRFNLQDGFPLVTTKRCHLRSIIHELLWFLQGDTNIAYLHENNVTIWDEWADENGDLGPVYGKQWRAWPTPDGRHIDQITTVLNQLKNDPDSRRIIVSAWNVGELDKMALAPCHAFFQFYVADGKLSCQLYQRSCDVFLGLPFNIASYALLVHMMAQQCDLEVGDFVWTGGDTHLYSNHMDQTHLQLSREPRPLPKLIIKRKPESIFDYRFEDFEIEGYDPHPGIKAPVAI

For `Cc1ccc(Sc2cccc3[nH]c4nc(N)nc(N)c4c23)cc1` [AAG-148-311, 5-[(4-methylphenyl)thio]-9H-pyrimido[4,5-b]indole-2,4-diamine], the IC50 against Thymidylate synthase [1] turned out to be 390 nM; at Thymidylate synthase [2], 180 nM.

As for `Cc1cc(C)c(/C=C2\C(=O)Nc3ccccc32)[nH]1` [SU5416, reference compound], the IC50 was determined as […] in the series “A431 cytotoxicity assay” (Table 3) and 32 ± 5 nM with CAM angiogenesis.

For the compound `Nc1nc2c(c(Nc3ccc(F)c(Cl)c3)n1)-c1ccccc1C2` [AAG145-164], the IC50 is > 200 µM on EGFR kinase (Table 3, read-out: EGFR kinase); 6.4 µM at PDGFR-β kinase (setting [5]); 158 µM in “A431 cytotoxicity assay” (Table 3); 72.9 µM against Flk-1 kinase.

Consider `Nc1nc2c(c(Nc3ccc(Cl)cc3F)n1)-c1ccccc1C2` [AAG145-135], for which the IC50 on EGFR kinase (Table 3, read-out: EGFR kinase) was 11.7 µM; in the series “A431 cytotoxicity assay” (Table 3), 9.7 µM; against Flk-1 kinase, 197 µM.

Consider `CC(C)c1ccccc1Nc1nc(N)nc2c1-c1ccccc1C2` [AAG145-124], for which the IC50 at EGFR kinase (Table 3, read-out: EGFR kinase) was > 200 µM; at PDGFR-β kinase (setting [5]), 21.7 µM; in the series “A431 cytotoxicity assay” (Table 3) it was 126 µM; against Flk-1 kinase it was > 200 µM.

Take `Nc1nc2c(c(Nc3ccccc3)n1)-c1ccccc1C2` [AAG145-158]: the IC50 on EGFR kinase (Table 3, read-out: EGFR kinase) is > 200 µM; on PDGFR-β kinase (setting [5]), 43.1 µM; in the series “A431 cytotoxicity assay” (Table 3), 4.9 µM; against Flk-1 kinase, 171 µM.

As to `Nc1nc2[nH]cc(CCc3ccc(C(=O)N[C@@H](CCC(=O)O)C(=O)O)cc3)c2c(=O)[nH]1` [Pemetrexed, reference compound], the IC50 against Thymidylate synthase [1] was 29000 nM; at Thymidylate synthase [3] (E. coli TS, read-out: Thymidylate synthase inhibition E. coli), 15 µM.

`Nc1nc(N)c2c(n1)[nH]c1cccc(Sc3ccccc3)c12` [AAG-148-43, 5-(phenylthio)-9H-pyrimido[4,5-b]indole-2,4-diamine]: the IC50 at EGFR kinase (Table 1, read-out: EGFR kinase inhibition) was 15.1 µM; against VEGFR-2 kinase, 22.6 µM; on PDGFR-β kinase (Table 1, read-out: PDGFR-β kinase inhibition), 2.8 µM; in the series “A431 cytotoxicity assay” (Table 1), 49.2 µM; against Thymidylate synthase [1], 540 nM; against Thymidylate synthase [3], > 27 µM. Moreover, the “metastasis to the liver of COLO-205 cells” value in [4] (setting [6]) is listed as “significantly reduced metastasis to the liver”. The “vascularity of COLO-205 primary tumors” value in series [4] (setting [6]) is “reduced vascularity much better than DMBI”. For the same compound, the “primary tumor growth of COLO-205” value in series [4] (athymic mice, 25 mg/kg three times a week) is “significantly reduced the growth”. For the same compound, in series [4] (mice, 25 mg/kg three times weekly), the “apparent toxicity (loss in weight of the animals)” value was “no apparent toxicity”.

In the case of `Nc1nc2c(c(Nc3cccc(F)c3)n1)-c1ccccc1C2` [AAG145-161], the IC50 at EGFR kinase (Table 3, read-out: EGFR kinase) is > 200 µM; at PDGFR-β kinase (setting [5]) it was 7.1 µM; in the series “A431 cytotoxicity assay” (Table 3), 9.8 µM; against Flk-1 kinase it was 55.7 µM.

For the compound `Nc1nc2c(c(Nc3cccc(Br)c3)n1)-c1ccccc1C2` [AAG145-131], the IC50 on EGFR kinase (Table 3, read-out: EGFR kinase) was 24.1 µM; on PDGFR-β kinase (setting [5]), 126 µM; in the series “A431 cytotoxicity assay” (Table 3), > 5000 µM; on Flk-1 kinase, > 200 µM.

As for `Nc1nc2c(c(Nc3cccc(Cl)c3)n1)-c1ccccc1C2` [AAG145-157], the IC50 on EGFR kinase (Table 3, read-out: EGFR kinase) is 19.6 µM; on PDGFR-β kinase (setting [5]) it was > 500 µM; in “A431 cytotoxicity assay” (Table 3) it was 235 µM; against Flk-1 kinase, 134 µM.

With `CC(C)c1ccc(Nc2nc(N)nc3c2-c2ccccc2C3)cc1` [AAG145-126], the IC50 on EGFR kinase (Table 3, read-out: EGFR kinase) was found to be 42.6 µM; on PDGFR-β kinase (setting [5]), 7.8 µM; in the series “A431 cytotoxicity assay” (Table 3), 126 µM; on Flk-1 kinase it was 11 µM.

As to `COc1cccc(Nc2nc(N)nc3c2-c2ccccc2C3)c1` [AAG145-159], the IC50 at EGFR kinase (Table 3, read-out: EGFR kinase) is > 200 µM; on PDGFR-β kinase (setting [5]), 75.5 µM; in “A431 cytotoxicity assay” (Table 3), 13.9 µM; at Flk-1 kinase it was 43 µM.
